Laboratory results from PubChem BioAssay (NCI).
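Values below derive from 48-hour exposures of cells grown in 96-well plates, with endpoints linearly interpolated between the two concentrations bracketing the appropriate inhibition level. TGI denotes the concentration required for complete inhibition of growth.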

Columns and labels:
Test in all cases: growth of human tumour cells (NCI), 48 h
MOLT-4 leukemia = system: MOLT-4 leukemia
OVCAR-3 ovarian = system: OVCAR-3 ovarian
OVCAR-8 ovarian = system: OVCAR-8 ovarian
M19-MEL melanoma = system: M19-MEL melanoma
KM12 colon = system: KM12 colon
NCI-H460 lung = system: NCI-H460 lung
SNB-19 CNS = system: SNB-19 CNS
NCI-H226 lung = system: NCI-H226 lung
UO-31 renal = system: UO-31 renal
HCT-15 colon = system: HCT-15 colon
SNB-78 CNS = system: SNB-78 CNS
A549 NSCLC = system: A549 NSCLC
DMS 114 small cell lung = system: DMS 114 small cell lung
A498 renal = system: A498 renal
SK-OV-3 ovarian = system: SK-OV-3 ovarian
OVCAR-5 ovarian = system: OVCAR-5 ovarian
MALME-3M melanoma = system: MALME-3M melanoma
EKVX NSCLC = system: EKVX NSCLC
RXF 393 renal = system: RXF 393 renal
UACC-62 melanoma = system: UACC-62 melanoma
SK-MEL-28 melanoma = system: SK-MEL-28 melanoma
KM20L2 colon = system: KM20L2 colon
HCT-116 colon = system: HCT-116 colon
UACC-257 melanoma = system: UACC-257 melanoma
IGROV1 ovarian = system: IGROV1 ovarian
SF-539 CNS = system: SF-539 CNS
M14 melanoma = system: M14 melanoma
U251 CNS = system: U251 CNS
786-0 renal = system: 786-0 renal
TK-10 renal = system: TK-10 renal
HOP-18 NSCLC = system: HOP-18 NSCLC
OVCAR-4 ovarian = system: OVCAR-4 ovarian
SF-295 CNS = system: SF-295 CNS
LOX IMVI melanoma = system: LOX IMVI melanoma
K-562 leukemia = system: K-562 leukemia
SR leukemia = system: SR leukemia
DLD-1 colon = system: DLD-1 colon
LXFL 529 NSCLC = system: LXFL 529 NSCLC
HL-60(TB) leukemia = system: HL-60(TB) leukemia
ACHN renal = system: ACHN renal
RXF-631 renal = system: RXF-631 renal
HOP-62 NSCLC = system: HOP-62 NSCLC
SNB-75 CNS = system: SNB-75 CNS
CCRF-CEM leukemia = system: CCRF-CEM leukemia
SN12C renal = system: SN12C renal
HT29 colon = system: HT29 colon
XF 498 CNS = system: XF 498 CNS
HCC-2998 colon = system: HCC-2998 colon
SW-620 colon = system: SW-620 colon
SF-268 CNS = system: SF-268 CNS
NCI-H23 lung = system: NCI-H23 lung
RPMI-8226 leukemia = system: RPMI-8226 leukemia
HOP-92 NSCLC = system: HOP-92 NSCLC
NCI-H522 lung = system: NCI-H522 lung
SK-MEL-5 melanoma = system: SK-MEL-5 melanoma
CAKI-1 renal = system: CAKI-1 renal
COLO 205 colon = system: COLO 205 colon
DMS 273 small cell lung = system: DMS 273 small cell lung
SK-MEL-2 melanoma = system: SK-MEL-2 melanoma

`O=Cc1cn(S(=O)(=O)c2ccccc2)c2ccccc12` was tested, and the TGI (MOLT-4 leukemia) was 53.1 µM, the TGI (OVCAR-3 ovarian) was greater than 100 µM and the TGI (OVCAR-8 ovarian) was greater than 100 µM. It also gave a TGI (M19-MEL melanoma) greater than 100 µM, a TGI (KM12 colon) greater than 100 µM and a TGI (NCI-H460 lung) greater than 100 µM. For the same molecule, the TGI (SNB-19 CNS) was greater than 100 µM, the TGI (NCI-H226 lung) was greater than 100 µM and the TGI (UO-31 renal) was 68 µM. For the same molecule, the TGI (HCT-15 colon) was greater than 100 µM, the TGI (SNB-78 CNS) was greater than 100 µM and the TGI (A549 NSCLC) was greater than 100 µM. The TGI (DMS 114 small cell lung) was 62.9 µM, the TGI (A498 renal) was greater than 100 µM and the TGI (SK-OV-3 ovarian) was greater than 100 µM. For the same molecule, the TGI (OVCAR-5 ovarian) was greater than 100 µM, the TGI (MALME-3M melanoma) was greater than 100 µM and the TGI (EKVX NSCLC) was greater than 100 µM. It also gave a TGI (RXF 393 renal) greater than 100 µM, a TGI (UACC-62 melanoma) of 86 µM and a TGI (SK-MEL-28 melanoma) greater than 100 µM. For the same molecule, the TGI (KM20L2 colon) was greater than 100 µM, the TGI (HCT-116 colon) was 40.1 µM and the TGI (UACC-257 melanoma) was greater than 100 µM. It also gave a TGI (IGROV1 ovarian) greater than 100 µM, a TGI (SF-539 CNS) greater than 100 µM and a TGI (M14 melanoma) greater than 100 µM. It also gave a TGI (U251 CNS) greater than 100 µM, a TGI (786-0 renal) greater than 100 µM and a TGI (TK-10 renal) greater than 100 µM. It also gave a TGI (HOP-18 NSCLC) greater than 100 µM, a TGI (OVCAR-4 ovarian) greater than 100 µM and a TGI (SF-295 CNS) greater than 100 µM. The TGI (LOX IMVI melanoma) was 43.8 µM, the TGI (K-562 leukemia) was 50 µM and the TGI (SR leukemia) was 67.1 µM. For the same molecule, the TGI (DLD-1 colon) was greater than 100 µM, the TGI (LXFL 529 NSCLC) was greater than 100 µM and the TGI (HL-60(TB) leukemia) was 49.2 µM. It also gave a TGI (ACHN renal) greater than 100 µM, a TGI (RXF-631 renal) greater than 100 µM and a TGI (HOP-62 NSCLC) greater than 100 µM. It also gave a TGI (SNB-75 CNS) greater than 100 µM, a TGI (CCRF-CEM leukemia) greater than 100 µM and a TGI (SN12C renal) greater than 100 µM. The TGI (HT29 colon) was greater than 100 µM, the TGI (XF 498 CNS) was greater than 100 µM and the TGI (HCC-2998 colon) was greater than 100 µM. For the same molecule, the TGI (SW-620 colon) was greater than 100 µM, the TGI (SF-268 CNS) was greater than 100 µM and the TGI (NCI-H23 lung) was 85 µM. It also gave a TGI (RPMI-8226 leukemia) of 59.3 µM.

For `O=[P+](O)c1cccnc1`, the TGI (MOLT-4 leukemia) was greater than 100 µM, the TGI (OVCAR-3 ovarian) was greater than 100 µM and the TGI (OVCAR-8 ovarian) was greater than 100 µM. The TGI (M19-MEL melanoma) was greater than 100 µM, the TGI (KM12 colon) was greater than 100 µM and the TGI (HOP-92 NSCLC) was greater than 100 µM. It also gave a TGI (NCI-H460 lung) greater than 100 µM, a TGI (SNB-19 CNS) greater than 100 µM and a TGI (NCI-H226 lung) greater than 100 µM. It also gave a TGI (UO-31 renal) greater than 100 µM, a TGI (HCT-15 colon) greater than 100 µM and a TGI (SNB-78 CNS) greater than 100 µM. The TGI (A549 NSCLC) was greater than 100 µM, the TGI (DMS 114 small cell lung) was greater than 100 µM and the TGI (NCI-H522 lung) was greater than 100 µM. It also gave a TGI (A498 renal) greater than 100 µM, a TGI (SK-MEL-5 melanoma) greater than 100 µM and a TGI (SK-OV-3 ovarian) greater than 100 µM. It also gave a TGI (OVCAR-5 ovarian) greater than 100 µM, a TGI (MALME-3M melanoma) greater than 100 µM and a TGI (EKVX NSCLC) greater than 100 µM. The TGI (RXF 393 renal) was greater than 100 µM, the TGI (UACC-62 melanoma) was greater than 100 µM and the TGI (SK-MEL-28 melanoma) was greater than 100 µM. It also gave a TGI (KM20L2 colon) greater than 100 µM, a TGI (HCT-116 colon) greater than 100 µM and a TGI (UACC-257 melanoma) greater than 100 µM. It also gave a TGI (IGROV1 ovarian) greater than 100 µM, a TGI (SF-539 CNS) greater than 100 µM and a TGI (M14 melanoma) greater than 100 µM. The TGI (CAKI-1 renal) was greater than 100 µM, the TGI (COLO 205 colon) was greater than 100 µM and the TGI (U251 CNS) was greater than 100 µM. The TGI (786-0 renal) was greater than 100 µM, the TGI (TK-10 renal) was greater than 100 µM and the TGI (OVCAR-4 ovarian) was greater than 100 µM. The TGI (SF-295 CNS) was greater than 100 µM, the TGI (LOX IMVI melanoma) was greater than 100 µM and the TGI (K-562 leukemia) was greater than 100 µM. For the same molecule, the TGI (SR leukemia) was greater than 100 µM, the TGI (DLD-1 colon) was greater than 100 µM and the TGI (LXFL 529 NSCLC) was greater than 100 µM. For the same molecule, the TGI (HL-60(TB) leukemia) was greater than 100 µM, the TGI (ACHN renal) was greater than 100 µM and the TGI (RXF-631 renal) was greater than 100 µM. It also gave a TGI (HOP-62 NSCLC) greater than 100 µM, a TGI (SNB-75 CNS) greater than 100 µM and a TGI (CCRF-CEM leukemia) greater than 100 µM. The TGI (SN12C renal) was greater than 100 µM, the TGI (HT29 colon) was greater than 100 µM and the TGI (XF 498 CNS) was greater than 100 µM. The TGI (HCC-2998 colon) was greater than 100 µM, the TGI (DMS 273 small cell lung) was greater than 100 µM and the TGI (SW-620 colon) was greater than 100 µM. It also gave a TGI (SF-268 CNS) greater than 100 µM, a TGI (NCI-H23 lung) greater than 100 µM and a TGI (RPMI-8226 leukemia) greater than 100 µM.

Work on `O=C1NC(Cc2ccccc2)C(=O)N2CCCC12` (stereo unspecified) yielded a TGI (MOLT-4 leukemia) greater than 100 µM, a TGI (OVCAR-3 ovarian) greater than 100 µM and a TGI (OVCAR-8 ovarian) greater than 100 µM. It also gave a TGI (M19-MEL melanoma) greater than 100 µM, a TGI (KM12 colon) greater than 100 µM and a TGI (HOP-92 NSCLC) greater than 100 µM. For the same molecule, the TGI (NCI-H460 lung) was greater than 100 µM, the TGI (SNB-19 CNS) was greater than 100 µM and the TGI (NCI-H226 lung) was greater than 100 µM. It also gave a TGI (UO-31 renal) greater than 100 µM, a TGI (HCT-15 colon) greater than 100 µM and a TGI (SNB-78 CNS) greater than 100 µM. The TGI (A549 NSCLC) was greater than 100 µM, the TGI (DMS 114 small cell lung) was greater than 100 µM and the TGI (NCI-H522 lung) was greater than 100 µM. It also gave a TGI (A498 renal) greater than 100 µM, a TGI (SK-MEL-5 melanoma) greater than 100 µM and a TGI (SK-OV-3 ovarian) greater than 100 µM. For the same molecule, the TGI (OVCAR-5 ovarian) was greater than 100 µM, the TGI (MALME-3M melanoma) was greater than 100 µM and the TGI (EKVX NSCLC) was greater than 100 µM. For the same molecule, the TGI (RXF 393 renal) was greater than 100 µM, the TGI (UACC-62 melanoma) was greater than 100 µM and the TGI (SK-MEL-28 melanoma) was greater than 100 µM. It also gave a TGI (KM20L2 colon) greater than 100 µM, a TGI (HCT-116 colon) greater than 100 µM and a TGI (UACC-257 melanoma) greater than 100 µM. It also gave a TGI (IGROV1 ovarian) greater than 100 µM, a TGI (SF-539 CNS) greater than 100 µM and a TGI (M14 melanoma) greater than 100 µM. For the same molecule, the TGI (CAKI-1 renal) was greater than 100 µM, the TGI (COLO 205 colon) was greater than 100 µM and the TGI (U251 CNS) was greater than 100 µM. It also gave a TGI (786-0 renal) greater than 100 µM, a TGI (TK-10 renal) greater than 100 µM and a TGI (HOP-18 NSCLC) greater than 100 µM. For the same molecule, the TGI (OVCAR-4 ovarian) was greater than 100 µM, the TGI (SF-295 CNS) was greater than 100 µM and the TGI (LOX IMVI melanoma) was greater than 100 µM. The TGI (K-562 leukemia) was greater than 100 µM, the TGI (SR leukemia) was greater than 100 µM and the TGI (DLD-1 colon) was greater than 100 µM. The TGI (LXFL 529 NSCLC) was greater than 100 µM, the TGI (HL-60(TB) leukemia) was greater than 100 µM and the TGI (ACHN renal) was greater than 100 µM. For the same molecule, the TGI (HOP-62 NSCLC) was greater than 100 µM, the TGI (SNB-75 CNS) was greater than 100 µM and the TGI (CCRF-CEM leukemia) was greater than 100 µM. It also gave a TGI (SN12C renal) greater than 100 µM, a TGI (HT29 colon) greater than 100 µM and a TGI (XF 498 CNS) greater than 100 µM. It also gave a TGI (HCC-2998 colon) greater than 100 µM, a TGI (DMS 273 small cell lung) greater than 100 µM and a TGI (SW-620 colon) greater than 100 µM. It also gave a TGI (SF-268 CNS) greater than 100 µM, a TGI (SK-MEL-2 melanoma) greater than 100 µM and a TGI (RPMI-8226 leukemia) greater than 100 µM.
